According to article PMC10454726 (International Journal of Molecular Sciences, 2023):

Assays:
[1] = Cytotoxic effect on Human Foreskin fibroblasts (SRB); format: cell-based; conditions: HFF-1 human foreskin fibroblasts, HFF-1 cells
Procedure: However, at high concentrations, they can be harmful to cells. For humans, doses less than 100 mg/day are considered safe. […] Therefore, we conducted cytotoxicity assays on Human Foreskin fibroblasts (HFF-1) and an AOT on female Wistar rats to assess their safety.
In a 96-well plate, 7000 cells per well of Human Foreskin fibroblasts (HFF-1) were cultured. […] Untreated cells were also included as a negative control. At the end of the incubation period, the cell contents were precipitated with 50 µL of a 50% aqueous solution of trichloroacetic acid (TCA) at 4 °C for 1 h. The supernatant was discarded and washed 5 times with distilled water. Afterward, the plates were allowed to dry at room temperature. The cell contents were incubated with 100 µL of a 0.04% sulforhodamine B (SRB) solution for 1 h at room temperature. The excess SRB was removed by washing with a 1% aqueous acetic acid solution. […] With the data obtained, the viability of treated cells was calculated by comparing the control without treatment. CC50 value was determined by employing BioStat Pro 5.9.8 software (AnalystSoft Inc., Brandon, FL, USA).

[2] = cited from earlier work
[3] = system: streptozotocin-induced diabetic rats; conditions: cited from earlier work
[4] = system: humans; conditions: cited from earlier work
[5] = system: streptozotocin-induced diabetic rats; experiment: Oral glucose tolerance test in streptozotocin-induced diabetic rats; format: in vivo, Wistar rat; design: AUC of the OGTT: unit not given here; conditions: for glucose blood levels in OGTT compared to untreated animals: after 14 days of administration, ANOVA/Bonferroni
Procedure: (§1) After a week of acclimation, 35 male Wistar rats were given a single intraperitoneal dose of STZ (Sigma Chemical Co. Toluca, Estado de México, Mexico) at a dosage of 45 mg/kg of body weight, after fasting for 12 h overnight with free access to water. To prevent initial drug-induced hypoglycemia mortality, these animals were given a 10% sucrose solution 24 h after administration. STZ was dissolved in 0.1 M of sodium citrate buffer (pH 4.5) and administered in a final volume of 5 mL/kg. A week after STZ injection, diabetes in streptozotocin rats was confirmed by measuring fasting blood glucose (by glucose oxidase method). Animals with a blood glucose (tail vein) above 126 mg/dL were considered diabetic and used for the experiment to create groups 2, 3, 4, 5, 6, and 7 [1, 13]. Blood glucose levels were measured using a glucometer (Accu-Chek Active, Roche, Mannheim, Germany) and reactive strips (Accu-Chek Active Glucose test strips, Roche). The presence of hyperglycemia and insulin level confirmed a model very similar to T2D in humans. For the pharmacological study, the final number of animals was 35 male rats, with 3 rats being sacrificed during the treatment stage. One was administered with FC-114 and two with acarbose. The first rat was damaged during oral glucose administration in the OGTT at week 5, and the other rats had gastrointestinal complications in week 7.
(§2) The diabetic animals in group 2 (untreated) were given 4% v/v aqueous EtOH solution (vehicle of treatments) in a volume of 6.5 mL/kg body weight. The other groups (3–7) received different treatments for 14 days (weeks 5 to 7). […] All of the treatments were at equimolar doses of PIO and adjusted to the weekly weight of each rat. […] The commercial PIO tablet (30 mg) was crushed in 7.5 mL of vehicle and given to each animal in 4.0 mg/mL of suspension. The FC-114 and FC-122 suspensions were created at 6.2 and 6.0 mg/mL, respectively. The commercial acarbose tablet (50 mg) was crushed in 7.5 mL of the vehicle and given to each animal in a suspension of 6.6 mg/mL. Each suspension was used within 2 days of its preparation, and the administration volume was near to 2.5 mL for each rat.
The OGTT was carried out in weeks 3, 4, 5, 6, and 7. Prior to the OGTT, all animal groups fasted overnight for eight hours with free access to water. Each rat was weighed and then received a 2 g/kg glucose overload orally and blood samples were taken from the tail vein [13, 97]. Glucose levels were measured using a glucometer (Accu-Chek Active, Roche, Mannheim, Germany) at 0, 30, 60, 90, 120, and 180 min after glucose administration. The AUC of the OGTT was calculated using the blood glucose concentration over time and the GraphPad Prism 8.0.1 software package (GraphPad Software; Science Inc., San Diego, CA, USA) was used to compare the effectiveness of the treatments.

[6] = system: streptozotocin-induced diabetic rats; experiment: Animal weight, food and water consumption in streptozotocin-induced diabetic rats; format: in vivo, Wistar rat; conditions: 14 days of treatment, weeks 5 to 7
Procedure: Six female (three for each compound: FC-114 and FC-122) (220 ± 10 g, for the acute toxicity assay) and forty male (215 ± 20 g, for the pharmacologic study) albino Wistar rats were acquired from the Isolation and Animal Facility Unit, Facultad de Estudios Superiores Cuautitlán (FESC), Universidad Nacional Autónoma de México (UNAM). They were kept in standard polypropylene boxes under controlled temperature (24 ± 4 °C) on a 12 h light/dark cycle and provided conventional food (formula 5001, Rat Chow) and purified water ad libitum. […] At the end of the experiment, the animals were taken to the humanitarian endpoint by the intraperitoneal (ip) administration of 75 mg/kg of sodium pentobarbital to perform a necropsy in the bioterium of FESC, UNAM. During the necropsy, blood serum was extracted to quantify glucose, triacylglycerides, cholesterol, and insulin. The study was conducted based on the guidelines of the Declaration of Helsinki and approved by the Institutional Review Board: Internal Committee for the Care and Use of Experimentation Animals (CICUAE, according to the initials in Spanish, C23_02 on March 2023) of the FESC UNAM (Mexico). It complies with the Mexican norm for this matter (NOM-062-ZOO-1999, Technical Specifications for the Production, Care, and Use of Laboratory Animals, SAGARPA), as well as the Guide for the Care and Use of Laboratory Animals of the National Research Council and National Institutes of Health (NIH Publications No. 8023, revised 1978).
as §1, §2

[7] = cited from earlier work; remark: listed apart in the source
[8] = biological target: α-glucosidase from Rominococcus obeum (Blautia obeum, UniProt A5ZY13); experiment: Enzymatic kinetics of α-glucosidase inhibition (pNPG substrate); format: biochemical
Chain of α-glucosidase from Rominococcus obeum (A5ZY13 entry or part of it): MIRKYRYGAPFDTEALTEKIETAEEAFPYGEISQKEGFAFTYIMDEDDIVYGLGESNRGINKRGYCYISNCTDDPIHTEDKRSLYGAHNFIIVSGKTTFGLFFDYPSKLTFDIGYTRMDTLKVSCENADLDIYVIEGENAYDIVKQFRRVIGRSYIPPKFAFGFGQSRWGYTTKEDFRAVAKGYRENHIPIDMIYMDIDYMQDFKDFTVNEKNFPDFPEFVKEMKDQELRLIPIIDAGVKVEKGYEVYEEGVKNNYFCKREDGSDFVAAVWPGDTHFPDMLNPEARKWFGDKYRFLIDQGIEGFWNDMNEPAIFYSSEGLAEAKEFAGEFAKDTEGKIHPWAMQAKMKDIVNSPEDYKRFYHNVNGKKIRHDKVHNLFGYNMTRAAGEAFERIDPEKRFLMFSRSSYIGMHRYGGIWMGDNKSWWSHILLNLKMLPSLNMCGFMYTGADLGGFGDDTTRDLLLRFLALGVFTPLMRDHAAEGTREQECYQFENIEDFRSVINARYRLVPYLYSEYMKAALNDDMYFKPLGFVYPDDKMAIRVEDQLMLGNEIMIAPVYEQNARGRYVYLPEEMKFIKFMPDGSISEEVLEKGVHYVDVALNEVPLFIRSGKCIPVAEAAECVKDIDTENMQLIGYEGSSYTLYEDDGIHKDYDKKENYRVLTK
Procedure: The kinetic studies for PTP1B and α-glucosidase were carried out under the same conditions described in the references.

[9] = system: streptozotocin-induced diabetic rats; experiment: Weekly fasting glucose in streptozotocin-induced diabetic rats; format: in vivo, Wistar rat; conditions: after 7 and 14 days of treatment (weeks 6 and 7)
Procedure: as §1, §2

[10] = Week 5 (day 1 of treatment), oral, glibenclamide 0.6, FC-114 51.3, FC-122 49.1, PIO 30, acarbose 54.3 mg/kg/day
[11] = Week 6 (day 7 of treatment), same doses
[12] = Week 7 (day 14 of treatment), same doses

SMILES | AUC of the OGTT [5, 10] | AUC of the OGTT [5, 11] | AUC of the OGTT [5, 12] | glucose blood levels in OGTT compared to untreated animals [5] | effective doses to cause decreases in blood glucose [7] [mg/kg] | fasting glucose levels [9] | other results
CC1(C)[C@@H](O)CC[C@]2(C)[C@H]3C(=O)C=C4[C@@H]5C[C@@](C)(C(=O)O)CC[C@]5(C)CC[C@@]4(C)[C@]3(C)CC[C@@H]12 [GA, glycyrrhetinic acid] |  |  |  |  |  |  | CC50 at 48 h [1]: 62 ± 2 µM; LD50 [2]: 610 mg/kg; insulin levels ([3]; 100 mg/kg): increase in insulin levels; plasma TAG, total cholesterol, HDL, VLDL, LDL ([3]; 100 mg/kg): restored normal levels; blood glucose and insulin levels ([3]; oral 100 mg/kg, compared with glibenclamide 600 μg/kg): improved blood glucose and insulin levels
CC1(C)[C@@H](O[C@H]2O[C@H](C(=O)O)[C@@H](O)[C@H](O)[C@H]2O[C@@H]2O[C@H](C(=O)O)[C@@H](O)[C@H](O)[C@H]2O)CC[C@]2(C)[C@H]3C(=O)C=C4[C@@H]5C[C@@](C)(C(=O)O)CC[C@]5(C)CC[C@@]4(C)[C@]3(C)CC[C@@H]12 [GL, glycyrrhizic acid] |  |  |  |  |  |  | dose considered safe [4]: less than 100 mg/day
CCc1ccc(CCOc2ccc(CC3SC(=O)NC3=O)cc2)nc1 (stereo not shown) [PIO, pioglitazone] | 49,677 | 43,584 | 40,044 | significantly improved | 15 to 45 |  | effectiveness in lowering blood glucose during the glucose tolerance curve (AUC) ([5]; week 7): most effective; animal weight compared to the untreated group (T2D) [6]: difference in weight
C[C@H]1O[C@H](O[C@H]2[C@H](O)[C@@H](O)[C@@H](O[C@H]3[C@H](O)[C@@H](O)C(O)O[C@@H]3CO)O[C@@H]2CO)[C@H](O)[C@@H](O)[C@@H]1N[C@H]1C=C(CO)[C@@H](O)[C@H](O)[C@H]1O (stereo partly shown) [acarbose] | 81,327 | 81,507 | 71,240 |  | 75 to 300 | downward trend | Inhibition type (α-glucosidase) ([8]; Lineweaver-Burk plots): competitive; Ki ([8]; substrate pNPG, Lineweaver-Burk): 26.8 µM
COc1ccc(Cl)cc1C(=O)NCCc1ccc(S(=O)(=O)NC(=O)NC2CCCCC2)cc1 [glibenclamide] | 62,022 | 67,311 | 50,874 | ranked second |  | downward trend | 
